Measured values taken from patent US9198909B1, “Materials and methods for inhibiting mamalian S-nitrosoglutathione reductase” (Indiana University Research and Technology Corporation, priority 2007, dated 2015).

Legend:
RAW 264.7 cells [1] = test: s-Nitrosothiol accumulation in RAW 264.7 cells, biotin switch assay; assay type: cell-based, rat
Description: Referring now to FIG. 4, RAW 264.7 cells were cultured in DMEM containing 10% heat-inactivated serum. Cells were treated with 33 μM of Compound 8 for 0, 2, 4, 8, or 24 h alone or in combination with 1 mM NAME for 4 h (lane 4+N). At indicated times, the cells were quenched and the lysate was analyzed for s-nitrosothiol content by the biotin switch assay.
RAW 264.7 cells were cultured in 10% heat-inactivated serum containing DMEM. Cells were treated with 33 micromolar compound 8 for varied lengths of time alone or in combination with 1 mM NAME for 4 h (4+N). […] Briefly, free sulfydryls in ˜200 μg of cell lysate were blocked with 20 mM MMTS in 1 ml of HEN buffer (250 mM HEPES pH 7.7 containing 1 mM EDTA and 0.1 mM Neocupronine) containing 2% SDS at 50° C. for 20 min. Free MMTS was removed by gel-filtration spin columns and the blocked proteins were labeled with 1 mM Biotin-HPDP (Pierce) in presence or absence of 30 mM ascorbate and 2 μM CuCl for 2.5 hours.

RAW 264.7 cells [2] = test: Nitroso species accumulation in RAW 264.7 cells (triiodide chemiluminescence); assay type: cell-based, rat
Description: Referring now to FIG. 3, briefly, RAW 264.7 cells were incubated with 500 μM GSNO alone (γ) or in presence of 33 μM Compound 6 (◯) or 7 (Δ) or 8 (▪). At indicated times or at 4 hr (in case of B), the cells were lysed and the lysate was analyzed for protein and nitroso species concentration by Bradford and chemiluminescence assay, respectively. For details, see Materials and methods. Data represents mean±SE (n=3−12).
RAW 264.7 cells were cultured in DMEM medium supplemented with 10% FBS, 200 U/ml of penicillin and 200 μg/mL of streptomycin. The cells were incubated at 37° C. in an atmosphere containing 5% CO2 and 95% air. For the experiments, 1-2×10^6 cells were plated in six-well plates a day before the experiment. On the day of the assay the medium was replaced with 3 ml of fresh medium and the cells were treated with compounds for a predetermined length of time. Following the incubation period, the cells were washed three times with PBS and scraped off the plate in 250 μl of lysis buffer (50 mM potassium phosphate pH 7.0 containing 50 mM NEM and 1 mM EDTA). Cells were lysed by sonication using a micro tip probe (three pulses of 30% duty cycle; 2 output control on a Fisher Sonicator). Cell debris was pelleted by centrifugation (10 min at 16,000 g) and the cell lysate was analyzed for protein concentration using the Bio-Rad dye-binding protein assay. The concentration of nitroso compounds in the cell lysate was determined using the triiodide based chemiluminescence method using a Sievers 280 nitric oxide analyzer. Briefly, cell lysates were treated with 15% v/v of a sulfanilamide solution (5% w/v in 0.2 M HCl) and kept at room temperature for 5 min to remove nitrite. The triodide mixture was prepared fresh every day as described earlier and kept at 60° C. in the reaction vessel. The concentration of nitroso species was derived from a standard curve generated using GSNO. For determining the amount of the small size nitroso compounds in the cell lysate, a 5 kDa-cutoff Amicon ultra filtration unit was used according to the supplier's instructions. The amount of s-nitrosothiols in the cell lysate was determined by treating initially passing the cell lysate through a microspin column and treating the eluate with 5 mM HgCl2 before determining the nitroso compound concentration using chemiluminescence. For some experiments the cells were pretreated with the compounds for 16 hours prior to the day of experiment.

mouse aorta segments = test: Wire myography, relaxation of aortic rings
Description: Referring now to FIG. 5, mouse aorta segments were equilibrated in oxygenated PSS (95% O2 and 5% CO2) at 37° C. Following equilibration, 1 μM phenylephrine was added to each ring for submaximal contraction. After stabilization, increasing concentrations (10−9 M to 10−4 M) of either compound 8 or sodium nitroprusside (SNP) was added to the rings and the tone of the rings determined (B) Inhibition of compound 8 induced relaxation of aortal rings by nitric oxide synthase inhibitor, L-NAME. To pre-equilibrated and submaximally contracted aortal rings with phenylephrine (1 micromolar), LNAME (500 micromolar) was added to the bath and allowed to incubate for 30 minutes. […] Each experiment was performed using two rings from three different mice and the mean (±SEM) for each response determined.
Mice were anesthetized with diethyl ether. A thoracotomy was performed to expose thoracic and abdominal aorta. A 25 gauge syringe was inserted into the apex of left ventricle and perfused free of blood with oxygenated Krebs Henseleit buffer. The right atrium was cut to provide an exit for blood. The aorta was removed and cleaned of fat and adventitia. The aorta was cut into 2-mm-long segments and mounted on a four-channel wire myograph (AD Instruments). Vessel rings were maintained in 10-ml organ baths with oxygenated PSS (95% O2 and 5% CO2) at 37° C. Rings were allowed to equilibrate for 80 minutes with the buffer in each organ bath changed every 20 min. One gram pretension was placed on each aortic ring (appropriate starting tension for optimal vasomotor function as determined in previous experiments). An eight-channel octal bridge (Powerlab) and data-acquisition software (Chart version 5.2.2) were used to record all force measurements. After equilibration for 80 min, 1 μM 27 phenylephrine was added to each ring for submaximal contraction. After stabilization, either compound 8 or sodium nitroprusside (SNP) was added to the rings and the tone of the rings determined. For the determination of SNP and ACh dose-response relationships, aortic rings were precontracted with 10−6 M PE, and SNP or compound 8 was then added in increasing concentrations from 10−9 M to 10−4 M. In a subset of experiments, L-NAME was added (500 μM final) to the bath and allowed to incubate for 30 minutes. After 30 minutes, compound 8 was added and the tone of the rings determined as described above.

[3] = direct comparison with sodium nitroprusside

EC50 (mouse aorta segments; rings precontracted with 1 μM phenylephrine, read-out: EC50 of vessel relaxation): 5 µM
SMILES: N#Cc1ccccc1CSc1nc2ccsc2c(=O)n1Cc1ccc(C(=O)O)cc1 [Compound 8]
time of peak effect on nitrosylation of cellular proteins (RAW 264.7 cells [1]; 33 μM): around 8 hours | time to decrease to normal nitrosylation levels (RAW 264.7 cells [1]; 33 μM): ≤ 24 h | accumulation of SNOs with simultaneous L-NAME (RAW 264.7 cells [1]; 33 μM compound 8 + 1 mM NAME, 4 h): less | nitrosylation of cellular proteins (RAW 264.7 cells [1]; 33 μM, 0-24 h): increased the nitrosylation of cellular proteins with time | nitrosylation, fold higher than Compound 7 (RAW 264.7 cells [2]; 33 μM initial concentration, 500 μM GSNO, 4 hr): 3 fold | decrease in nitrosylated species relative to amounts at 4 hours (RAW 264.7 cells [2]; exposure up to 24 hours, data not shown): 80% | time to begin relaxation (mouse aorta segments): around 3 minutes | duration of sustained vessel relaxation (mouse aorta segments; 50 μM): up to 2 hours | relaxation of the vessels (mouse aorta segments; 50 μM): completely relaxed | time to complete relaxation (mouse aorta segments; 50 μM): ≤ 15 min | inhibition of vasorelaxation by L-NAME preincubation (mouse aorta segments; 500 μM L-NAME for 30 minutes, then 50 μM compound 8): roughly 58% | duration of the effect compared with SNP (mouse aorta segments; [3]): much longer than with SNP | potency at relaxing vascular smooth muscle compared with SNP (mouse aorta segments; [3]): less potent than SNP
